# Patent US11793879B2, “Monolithic composition for dual-rate release with high drug loading” (priority 2016, dated 2023)
# Details: for immediate release / immediate release (amount): Example 5 monolithic tablet (900 mg acetaminophen + 100 mg caffeine), after 30 minutes in SGF
# Procedure: The dissolution kinetic assay is followed with a Distek™ apparatus according to the paddle method from USP-32, with slight modification. Indeed, the monolithic tablets are placed in 750 mL of simulated gastric fluid (SGF, pH 1.5) during 30 minutes, at 37° C. Thereafter, a volume of 250 mL of sodium tripolyphosphate 0.20 M is added directly in SGF to neutralize the gastric acidity for pH values of about 6.8-7.0 which constituted the pH of simulated intestinal fluid (SIF).
# At different intervals of 30 minutes, an aliquot of 1 mL of dissolution fluid is withdrawn from dissolution media, filtered and properly diluted (approximately 1/50). The absorbency is measured with an UV spectrometer (Lambda-40 Spectrometer, Perkin Elmer) at 247 nm.
# The Carboxymethyl starch is prepared according to the process of the present invention. […] For acetaminophen, the absorbency of samples is measured with an UV spectrometer at 247 nm. For caffeine, the dosage is carried out by HPLC according to method described by Hassouna et al. (Hassouna, M. E. M, Issa, Y. M. and Zayed, A. G. 2012. J. Appl. Pharm. Sci., 02, 52-59)
"immediate release of Acetaminophen (amount) (Example 4 monolithic tablet (1000 mg acetaminophen), after 45 minutes (30 minutes in SGF and 15 minutes in SIF))","immediate release of Acetaminophen (Example 4 monolithic tablet (1000 mg acetaminophen, carboxymethyl starch excipient), after 45 minutes (30 minutes in SGF pH 1.5 and 15 minutes in SIF), 37° C., FIG. 2)",Compound,immediate release,immediate release (amount)
~600 mg,~60%,CC(=O)Nc1ccc(O)cc1 [Acetaminophen],~35%,~350 mg
–,–,"Cn1c(=O)c2c(ncn2C)n(C)c1=O [caffeine, Caffeine]",~25%,~25 mg
